Assays:
3T3 (fibroblast) = assay: SRB cytotoxicity assay, 3T3 cells; type: cell-based; details: immortalised, mesenchymal, 72 h
Method: (§1) All cell lines described herein were purchased from ATCC. […] Control cultures were treated with ethanol alone.

SKOV-1 = assay: SRB cytotoxicity assay, SKOV-1 cells
Method: Cells were seeded in 96-well plates (2,000-3,000 cells/well), treated with the indicated compound(s) for 72 h, fixed, washed and stained with 100 μl of 0.4% (w/v) SRB dissolved in 1% acetic acid. Unbound dye was removed by five washes with 1% acetic acid before air-drying.
(§2) MPL (5 μM) and combination drugs were applied for 72 h unless indicated.

YOU = assay: SRB cytotoxicity assay, YOU cells; type: cell-based, human; details: 72 h
Method: as §1

CHO = assay: SRB cytotoxicity assay, CHO cells; type: cell-based; details: Cricetulus griseus, immortalised, ovarian, 72 h
Method: as §1

C170 = assay: SRB cytotoxicity assay, C170 cells; type: cell-based
Method: as §1

OVCAR-3 = assay: SRB cytotoxicity / proliferation assay, OVCAR-3 cells; details: for significant cytotoxic effect of MPL alone: OVCAR-3 cells
Method: Cells were seeded in 96-well plates (2,000-3,000 cells/well) and culture overnight prior to treatment with MPL. Control cultures were treated with ethanol alone.
Cytotoxicity was assessed using the sulforhodamine B (SRB) assay and reported as half maximal inhibitory concentration (IC50; Table 3). Cells were seeded in 96-well plates (2,000-3,000 cells/well), treated with the indicated compound(s) for 72 h, fixed, washed and stained with 100 μl of 0.4% (w/v) SRB dissolved in 1% acetic acid. Unbound dye was removed by five washes with 1% acetic acid before air-drying.
In order to evaluate the effect of MPL on the in vitro efficacy of an established drug was evaluated using cell viability and cell proliferation assays. Cell viability was conducted according to standard Trypan Blue method. Cell proliferation was assessed using the sulforhodamine B (SRB) assay. For viability experiments, cells were seeded in 6 well plates, whereas for proliferation assays cells were grown in 96 well plates. Following over-night attachment, cells were treated with the intended drug at various concentrations either alone or in combination with monepantel (MPL) for 72 h. Parallel to this, cells treated with MPL alone were also deployed for comparative purposes. Following incubation for 72 h in a standard cell culture incubator, effect of mono and combined drug treatments on cell viability and/or cell proliferation was assessed through using Trypan Blue or SRB assays respectively.
For viability assay, at the end of treatment period, cells were washed with PBS, trypsinized and counted using Trypan blue and hemocytometer. For the SRB assay cells were fixed, washed and stained with 100 μl of 0.4% (w/v) SRB dissolved in 1% acetic acid. Unbound dye was removed by five washes with 1% acetic acid before air drying. […] Monepantel (gift by Novartis, Basel, Switzerland) was dissolved in 100% ethanol and then diluted with the cell culture media.
as §2

[1] = in vivo; cited from earlier work

C[C@](C#N)(COc1cc(C#N)ccc1C(F)(F)F)NC(=O)c1ccc(SC(F)(F)F)cc1 [MPL, N-[(1S)-1-cyano-2-(5-cyano-2-trifluoromethyl-phenoxy)-1-methyl-ethyl]-4-trifluoromethylsulfanyl-benzamide]
IC50 (3T3 (fibroblast)): 12.4 ± 0.4 µM
A) Single treatment, one symbol per experiment (SKOV-1; SKOV-1, MPL (5 μM), 72 h): ✓✓✓
significant cytotoxic effect of MPL alone (SKOV-1; SKOV-1 cells, MPL 5 μM, 3/3 experiments): significant cytotoxic effect
IC50 (YOU; Homo sapiens, YOU, malignant, mesothelial, SRB): 23 µM
Mpl Alone, Mpl (x/X) Inhibition (YOU; YOU Mesothelioma, 5 μM MPL, x=events, X=experiments): 2/2
IC50 (CHO): 34.6 ± 0.8 µM
significant cytotoxic effect of MPL alone (C170; C170 cells, MPL (5 μM)): one of two experiments
IC50 (C170; Homo sapiens, C170, malignant, colorectal, SRB, 72 h): ~20 µM
IC50 (OVCAR-3; Homo sapiens, OVCAR-3, 72 h): 6.3 ± 0.8 µM
Mpl Alone, Mpl (x/X) Inhibition (OVCAR-3; OVCAR-3, 5 μM MPL, 72 h, x=events, X=experiments, Table 7): (3/3)
Mpl Alone, Mpl (x/X) Inhibition (OVCAR-3; OVCAR-3, 5 or 10 μM MPL, 72 h, Table 8 lower panel, same MPL control for serotonin and wortmannin): (2/2)^2
Mpl Alone, Mpl (x/X) Inhibition (OVCAR-3; OVCAR-3, 5 or 10 μM MPL, 72 h, Table 8 upper panel, x=events, X=experiments): (5/5)
A) Single treatment, one symbol per experiment (OVCAR-3; OVCAR-3, MPL (5 μM), 72 h): ✓✓✓✓✓✓
Mpl Alone, Mpl (x/X) Inhibition (OVCAR-3; OVCAR-3 Ovarian, 5 μM MPL, 72 h, x=events, X=experiments, Table 6): 4/4
significant cytotoxic effect of MPL alone (OVCAR-3; MPL 2.5 μM, 1/1 experiments): but not 2.5 μM alone
significant cytotoxic effect of MPL alone (OVCAR-3; MPL 5 μM, 6/6 experiments): significant cytotoxic effect
single-dose toxicity [1]: > 2000 mg per kg of body weight

Source: patent publication US9833431B2, “Pharmaceutical combinations for the treatment of cancer” (Pitney Pharmaceuticals Pty Limited, priority 2013, dated 2017)
